Measurements as given in ChEMBL document CHEMBL3217562, “N-Substituted salicylamides as selective malaria parasite dihydroorotate dehydrogenase inhibitors” (Medchemcomm, 2011).

What was measured:
[1] = target: T1, Dihydroorotate dehydrogenase (Plasmodium falciparum, UniProt Q54A96); assay: Inhibition of N-terminal truncated Plasmodium falciparum recombinant DHODH assessed as ubiquinone reduction to 2,6-dichloroindophenol by spectrophotometric analysis
T1 sequence (Q54A96 whole entry): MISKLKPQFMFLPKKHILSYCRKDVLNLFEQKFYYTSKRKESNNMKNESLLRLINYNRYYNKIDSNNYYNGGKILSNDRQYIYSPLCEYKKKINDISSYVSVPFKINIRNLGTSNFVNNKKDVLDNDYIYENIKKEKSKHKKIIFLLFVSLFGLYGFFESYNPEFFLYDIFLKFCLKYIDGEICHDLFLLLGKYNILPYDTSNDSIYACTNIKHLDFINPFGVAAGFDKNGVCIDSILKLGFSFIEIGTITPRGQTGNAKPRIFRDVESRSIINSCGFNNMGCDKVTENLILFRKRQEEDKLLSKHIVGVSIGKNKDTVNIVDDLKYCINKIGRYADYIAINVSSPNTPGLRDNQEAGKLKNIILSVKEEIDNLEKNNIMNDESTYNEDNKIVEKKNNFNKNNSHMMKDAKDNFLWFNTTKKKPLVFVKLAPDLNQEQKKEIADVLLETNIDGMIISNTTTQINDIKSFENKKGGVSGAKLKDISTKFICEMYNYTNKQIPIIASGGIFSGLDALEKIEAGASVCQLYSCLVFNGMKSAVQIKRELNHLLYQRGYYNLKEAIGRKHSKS

[2] = target: T2, Dihydroorotate dehydrogenase (Plasmodium falciparum) (UniProt Q54A96); assay: Inhibition of N-terminal truncated Plasmodium falciparum recombinant DHODH assessed as ubiquinone reduction to 2,6-dichloroindophenol at 10 uM by spectrophotometric analysis relative to control
T2 sequence (whole entry): T1 sequence (Q54A96 whole entry)

[3] = target: T3, Dihydroorotate dehydrogenase (quinone), mitochondrial (Homo sapiens, UniProt Q02127); assay: Inhibition of N-terminal truncated human recombinant DHODH assessed as ubiquinone reduction to 2,6-dichloroindophenol at 10 uM by spectrophotometric analysis relative to control
T3 sequence (Q02127 whole entry, the tested form may be a part): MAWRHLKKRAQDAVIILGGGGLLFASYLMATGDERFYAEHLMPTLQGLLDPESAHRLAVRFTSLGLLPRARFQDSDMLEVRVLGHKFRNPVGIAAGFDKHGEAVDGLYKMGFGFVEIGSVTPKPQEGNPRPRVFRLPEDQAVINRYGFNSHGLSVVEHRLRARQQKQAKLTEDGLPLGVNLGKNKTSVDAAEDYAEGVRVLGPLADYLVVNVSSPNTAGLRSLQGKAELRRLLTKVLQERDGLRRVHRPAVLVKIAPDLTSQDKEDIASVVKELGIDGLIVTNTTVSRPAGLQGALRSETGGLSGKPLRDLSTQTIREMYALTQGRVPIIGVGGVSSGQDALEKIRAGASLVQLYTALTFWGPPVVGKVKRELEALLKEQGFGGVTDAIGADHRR

[4] = target: T3, Dihydroorotate dehydrogenase (quinone), mitochondrial; assay: Inhibition of N-terminal truncated human recombinant DHODH assessed as ubiquinone reduction to 2,6-dichloroindophenol by spectrophotometric analysis
Plasmodium falciparum = assay: Antiplasmodial activity against Plasmodium falciparum 3D7 after 48 hrs by [3H]-hypoxanthine incorporation assay; assay type: functional, organism-based
[5] = Selectivity ratio of IC50 for N-terminal truncated human recombinant DHODH to IC50 for N-terminal truncated Plasmodium falciparum recombinant DHODH
[6] = target: T2, Dihydroorotate dehydrogenase (Plasmodium falciparum); assay: Inhibition of N-terminal truncated Plasmodium falciparum recombinant DHODH assessed as ubiquinone reduction to 2,6-dichloroindophenol at 100 uM by spectrophotometric analysis relative to control

| Structure (SMILES) | IC50 [1] [µM] | inhibition [2] [%] | inhibition [3] [%] | IC50 [4] [µM] | other results |
| --- | --- | --- | --- | --- | --- |
| COc1cccc(O)c1C(=O)NCC(c1ccccc1)c1ccccc1 | > 125 | – | – | – | – |
| O=C(NCCC(c1ccccc1)c1ccccc1)c1ccccc1O | – | 22 | 21 | – | – |
| O=C(NCC(c1ccccc1)c1ccccc1)c1ccc(F)c(F)c1O | 9.9 | – | – | 130 | EC50 (Plasmodium falciparum): 100 µM; Ratio IC50 [5]: 18 |
| O=C(NCCCc1ccccc1)c1ccccc1O | – | 39 | 7 | – | – |
| Cc1ccc(O)c(C(=O)NCCc2ccccc2)c1 | – | 16 | 4 | – | – |
| O=Cc1ccc(C(=O)NCC(c2ccccc2)c2ccccc2)c(O)c1 | 16.5 | – | – | > 200 | – |
| O=C(NCC(c1ccccc1)c1ccccc1)c1c(O)cccc1F | > 125 | – | – | – | – |
| O=C(NCC(c1ccccc1)c1ccccc1)c1ccc(Cl)cc1O | 10.3 | – | – | > 200 | – |
| O=C(NCC(c1ccccc1)c1ccccc1)c1cccc(Cl)c1O | 44.1 | – | – | > 200 | – |
| O=C(NCC(c1ccccc1)c1ccccc1)c1cc(Br)ccc1O | 10.8 | – | – | > 200 | – |
| O=C(NCCc1ccccc1)c1ccccc1O | – | 21 | 6 | – | inhibition [6]: 53% |
| CC(CNC(=O)c1ccccc1O)c1ccccc1 (racemic) | – | 20 | 4 | – | – |
| O=C(NCC(c1ccccc1)c1ccccc1)c1cccc(F)c1O | 26.1 | – | – | > 200 | – |
| O=C(NCC(c1ccccc1)c1ccccc1)c1ccc(CO)cc1O | 46.2 | – | – | > 200 | – |
| Cc1ccc(O)c(C(=O)NCC(c2ccccc2)c2ccccc2)c1 | 14.4 | – | – | > 200 | – |
| O=C(NCC(c1ccccc1)c1ccccc1)c1ccccc1O | 21.2 | 38 | 4 | > 200 | – |
| O=C(NCCc1ccccc1)c1cc([N+](=O)[O-])ccc1O | – | 5 | 26 | – | – |

| Structure (SMILES) | IC50 [1] [µM] | inhibition [2] [%] | inhibition [3] [%] | IC50 [4] [µM] | other results |
| --- | --- | --- | --- | --- | --- |
| O=C(NCc1ccccc1)c1ccccc1O | – | 16 | 4 | – | – |
| O=C(NCCc1ccccc1)c1ccc(Cl)cc1O | – | 16 | 8 | – | – |
| O=C(NC(c1ccccc1)c1ccccc1)c1ccccc1O | – | 0 | 6 | – | – |
| O=C(NCCc1ccccc1)c1cc(Cl)ccc1O | – | 23 | 6 | – | – |
| COc1ccc(O)c(C(=O)NCCc2ccccc2)c1 | – | 8 | 8 | – | – |
| O=C(NCC(c1ccccc1)c1ccccc1)c1cc(CO)ccc1O | 8 | – | – | > 200 | EC50 (Plasmodium falciparum): 53 µM; Ratio IC50 [5]: 18 |
| COc1ccc(C(=O)NCC(c2ccccc2)c2ccccc2)c(O)c1 | 14 | – | – | > 200 | – |
| O=C(NCCc1ccccc1)c1cccc(Cl)c1O | – | 10 | 8 | – | – |
| COc1ccc(O)c(C(=O)NCC(c2ccccc2)c2ccccc2)c1 | 18.1 | – | – | > 200 | – |
| CN(CCc1ccccc1)C(=O)c1ccccc1O | – | 3 | 3 | – | – |
| COc1cccc(C(=O)NCC(c2ccccc2)c2ccccc2)c1O | > 500 | – | – | > 200 | – |
| COc1ccc(C(=O)NCCc2ccccc2)c(O)c1 | – | 9 | 5 | – | – |
| O=C(NCC(c1ccccc1)c1ccccc1)c1cc(Cl)ccc1O | 9.1 | – | – | > 200 | EC50 (Plasmodium falciparum): 23 µM; Ratio IC50 [5]: 18 |
| O=C(NCCc1ccccc1)c1c(O)cccc1O | – | 17 | 15 | – | – |
| COc1cccc(C(=O)NCCc2ccccc2)c1O | – | 7 | 8 | – | – |
| O=C(NCC(c1ccccc1)c1ccccc1)c1cc(Cl)cc(Cl)c1O | 7 | – | – | > 200 | EC50 (Plasmodium falciparum): 170 µM; Ratio IC50 [5]: > 20 |
| O=C(NCC(c1ccccc1)c1ccccc1)c1cccc(CO)c1O | > 100 | – | – | > 200 | – |
